In patent US12031087B2, “Oxygenated solvents for improved production of oil and gas” (Board of Regents, The University of Texas System, priority 2019, dated 2024):
Read-outs that look alike come from different tables or passages of the source.

Assays:
[1] = 347 K
Text: Contact Angle Experiments. […] The procedure largely follows that of Example 1, but as explained below, a change to the previous procedure was necessary because it was not possible to continuously monitor oil droplets on the calcite surface with the surfactant solution.
Before the contact angle measurement, the chemical solution and RB were separately degasified at elevated temperatures. Then, oil-aged calcite pieces were placed in RB. Oil droplets were placed on the bottom surface of a calcite piece in the RB glass chamber.
The calcite piece was continued to be placed in the surfactant solution and taken out after 1 day. Then, the calcite piece was rinsed with RB and placed in RB with no surfactant. […] A photo of the oil droplet was taken then. The contact angles of both sides of each oil droplet were measured using onscreen protractor software. An average contact angle and standard deviation were then calculated.

[2] = Text: Experimental Procedure for Flooding/Soaking Experiments. […] This section describes the preparation of the tight cores and the flooding/soaking experiments. Properties of the tight carbonate cores and the injection scheme for two flooding/soaking experiments are also summarized in this section.
Rocherons carbonate cores (Kocurek Industries Inc.) were used in this research. […] In this research, 11 core pieces were saturated only by crude oil and 5 core pieces were saturated by both crude oil and reservoir brine at room temperature. To saturate core pieces by crude oil, they were placed in an accumulator, which was evacuated for at least 24 hours. […] The weights of the core pieces were measured before and after saturating by crude oil to quantify the oil volume in the cores. The volume so determined was assumed to be the accessible pore volume (PV) of the core. […] It consists of an accumulator for reservoir brine, a pump, a Hassler-type core-holder, a hydraulic manual pump to maintain the overburden pressure and cylinders. Before brine injection, the inlet tubing of the coreholder was evacuated for 10 seconds to prevent injecting air into the core. The core was flooded by brine until the injected brine volume exceeded the accessible pore volume. […] The weights of the core pieces were measured after they were re-saturated by the crude oil. The brine and oil volumes in the core pieces were calculated by the following equations. […] Then, oil and brine saturations in each core piece can be calculated. Table 19 presents the properties of the core pieces, including the length of each core piece, accessible pore volume, and oil and brine saturations. Core pieces #1-#5 in Table 19 were saturated by both brine and oil.
An artificial fracture was created along the longitudinal axis using an electric saw for each core piece. Teflon spacers with 0.001 m in width were placed along two edges of the fracture to maintain a fracture aperture. Then, the core halves were carefully put together with the Teflon spacers placed in the fracture, wrapped with a Teflon tube and placed inside a horizontally-oriented core holder, with the fracture vertically-oriented. Teflon spacer was not placed in the space between core pieces. […] When assembling the core pieces for Case 1, core pieces were put so that oil saturation changes monotonically. Qualitatively, the longitudinal fracture served as a propped fracture and the fractures normal to it served as unpropped fractures in terms of hydraulic paths.
FIG. 59 presents a schematic of the experimental set-up for the flooding/soaking experiment. […] Then, the system was evacuated for 10 seconds to remove any air trapped in the fractures. After that, the core was flooded with crude oil to measure the fracture permeability by using the flow rate of 500 cm^3/hr under certain overburden pressure. Table 20 provides the pressure drops along the cores at a certain flow rate and the overburden pressures used.
During flooding/soaking experiments, the RB was injected at 6 ml/hr until no more oil production was observed. Then, the surfactant solution was injected at 6 ml/hr to fill the volume from the inlet of the coreholder until the outlet line of the coreholder, which was followed by a 10-hour soaking period. After that, the surfactant solution was injected at 6 ml/hr to chase the fluid in the system and to recover the produced oil during the first soaking period. The system was then shut-in for a second 10-hour soaking period. RB was then injected at 6 ml/hr to chase the fluid in the system and to recover the produced oil during the second soaking period. Finally, the system was shut-in for a 12-hour soaking period, followed by RB injection to chase the fluid in the system until no oil production.
The effluent was collected in plastic graduating cylinders at room temperature.

[3] = Coreflooding of fractured cores, vertical (Example 2)
Description: Experimental Procedure for Coreflooding. […] The Indiana limestone cores have the common dimensions with a diameter of 0.0254 m and a length of 0.127 m. The cores were saturated with RB first and then oil, during which the core properties were measured, such as porosity, permeability, and water and oil saturations.
It includes an accumulator for crude oil, a pump, a Hassler-type core holder, a hydraulic manual pump to maintain the overburden pressure, a differential pressure gauge, cylinders, and an oven. After a core was placed in the core holder, oil was injected into the cores at 100 cm^3/h and 347 K until no water production was observed.
An artificial fracture was created along the longitudinal axis using an electric saw for each core (FIG. 20). By following the procedure of Mejia, Teflon spacers with 0.001 m in width and 0.127 m in length were placed along two edges of the fracture to maintain a fracture aperture. Then, the core halves were carefully put together with the Teflon spacers in the fracture, wrapped with a Teflon tube, and placed inside a vertically oriented coreholder.
FIG. 21 provides a schematic of the experimental setup for coreflooding. It consists of accumulators for crude oil, RB, and chemical solution (3-pentanone or surfactant), a pump, a Hassler-type core holder, a hydraulic manual pump to maintain the overburden pressure, a differential pressure gauge, cylinders, and an oven. […] After a fractured core was placed in the coreholder, the oven temperature was increased to reservoir temperature (347 K). Then, the core was flooded with crude oil to remove any gas inside the fracture and measure the fracture permeability using the flow rate of 900 cm^3/h. The overburden pressure was adjusted so that all cores used in this research had similar fracture apertures and fracture permeabilities.
Fracture permeabilities were calculated. The equation for flow between parallel plates b=(3πdke)^1/3 was used to estimate a fracture aperture, where b is the fracture aperture, d is the core diameter, and ke is the effective oil permeability of the fractured core. […] Af and Am are cross-sectional areas of the fracture and matrix, respectively. kf and km are permeabilities of the fracture and matrix, respectively.
The initial RB stage was at 6 cm^3/h for 1.5 pore volumes injected (PVI), then at 0.05 cm^3/h for 0.3-0.4 PVI, and at 6 cm^3/h until there was no oil production. After that, a chemical slug (3-pentanone or surfactant) was injected at 0.6 cm^3/h for 1.6 PVI. Finally, the chase RB was injected at 0.6 cm^3/h. […] However, it was terminated after 1.2 PVI of the chase RB for core 1 because of operational constraints.
The coreflood effluent was collected in plastic graduating cylinders at room temperature. To correct the oil recovery factor for 3-pentanone solubility in oil, the 3-pentanone concentration in recovered oil was measured by the proton nuclear magnetic resonance (H NMR) method for the chemical slug and chase RB flooding periods for core 1.

[4] = 24 h after immersion in 1.0 wt % surfactant solution

2-ethylhexanol-4 propylene oxide-15 ethylene oxide [2-EH-4PO-15EO]
Average contact angle [1, 4]: 47.1 deg
contact angle, left side [1, 4]: 47.5 deg
contact angle, right side [1, 4]: 46.8 deg
Average contact angle ([1]; at the initialization): 134.1 deg
contact angle, left side ([1]; at the initialization): 133.2 deg
contact angle, right side ([1]; at the initialization): 135.1 deg
total improved oil recovery ([2]; Case 1 (with initial water)): 76.11 % OOIM
Cumulative improved oil recovery factor by surfactant solution ([2]; Case 1 (with initial water), after the 1st soaking period): 0.3348
Cumulative improved oil recovery factor by surfactant solution ([2]; Case 1 (with initial water), after the 2nd soaking period): 0.6303
Cumulative improved oil recovery factor by surfactant solution ([2]; Case 1 (with initial water), after the 3rd soaking period): 0.7611
incremental oil recovery ([2]; Case 1, after the 1st soaking period): 33.48 % OOIM
incremental oil recovery ([2]; Case 1, after the 2nd soaking period): 29.55 % OOIM
incremental oil recovery ([2]; Case 1, after the 3rd soaking period): 13.09 % OOIM
total improved oil recovery ([2]; Case 2 (without initial water)): 78.42 % OOIM
Cumulative improved oil recovery factor by surfactant solution ([2]; Case 2 (without initial water), after the 1st soaking period): 0.3555
Cumulative improved oil recovery factor by surfactant solution ([2]; Case 2 (without initial water), after the 2nd soaking period): 0.6647
Cumulative improved oil recovery factor by surfactant solution ([2]; Case 2 (without initial water), after the 3rd soaking period): 0.7842
incremental oil recovery ([2]; Case 2, after the 1st soaking period): 35.55 % OOIM
incremental oil recovery ([2]; Case 2, after the 2nd soaking period): 30.92 % OOIM
incremental oil recovery ([2]; Case 2, after the 3rd soaking period): 11.95 % OOIM
incremental oil recovery factor, chemical slug stage ([3]; 1.6 PVI slug after first RB flood, 1.1 wt % 3-pentanone in RB (core 1) or 1.0 wt % 2-EH-4PO-15EO in RB (core 2), 347 K): 23.6%
incremental oil recovery factor, chase RB flooding stage ([3]; 7.0 PVI chase RB, core 2, 347 K): 23.7%
total improved oil recovery ([3]; chemical slug + chase RB stages (1.2 PVI chase core 1; 7.0 PVI chase core 2), 347 K): 47.3%
